Assays:
p-Hsp27 in THP-1 cells = assay: Western blot of p-Hsp27 in IL-4/IL-13 treated THP-1 cells; assay type: cell-based, human; conditions: 1 h pretreatment, IL-4/IL-13 30 min
From the text: (§1) A previous study has reported that MK2 fostered M2‐like polarization of TAMs, driving a protumor and proangiogenic phenotype which in turn accelerates tumor progression.[21] We thus assessed the influence of compound 11 on macrophage polarization and function. Our experiments used human THP‐1 monocyte induced macrophages, mouse RAW264.7 macrophages, and mouse bone marrow‐derived macrophages (BMDM). These cells were induced into M2‐like macrophages using the classic IL‐4 and IL‐13 stimuli.
FIGURE 5 Inhibition of pro‐tumorigenic M2‐like polarization in macrophages by compound 11. (A–C) RT‐PCR analysis highlights the impact of compound 11 on MRC1 and ARG‐1 mRNA expression in various macrophage cells treated with IL‐4/IL‐13 alone or combined with compound 11 for 12 h or 24 h. (D) CD206 and Arg‐1 expression in bone marrow‐derived macrophages (BMDM) cells via flow cytometry post 48 h treatment of compound 11 and IL‐4/IL‐13. (E) The treatment effects of compound 11 in THP‐1 cells using western blot analysis. […] Data are shown as the mean ± SD. ^* p < 0.05; ^*** p < 0.001 versus the vehicle group, determined by unpaired t test. […]
After the treatment outlined in the figure legends, cells were lysed using 1× sodium dodecyl sulfate (SDS) solution. […] Protein bands were detected using an enhanced chemiluminescence detection reagent (Thermo Fisher Scientific).

[1] = Cell viability assay (CCK-8), CT26; assay type: cell-based; conditions: mouse, CT26 cells (colorectal carcinoma), CT26, murine colorectal carcinoma, read-out: IC50 (μM) mean ± SD, cytotoxicity
Method: (§2) In cellular experiments, cells are seeded into either 6-well or 96-well plates and incubated overnight, proceeding with treatments as described in the figure legends or methods section. The cell inoculation numbers are outlined as follows: For assays measuring cell viability, between 3,000 to 5,000 cells are seeded per well in 96-well plates. For other cellular assays, the seeding density ranges from 5×10^5 to 1×10^6 cells per well in 6-well plates.
(§3) Cells was plated into 96-well plates and incubated overnight prior to introduction of varying concentrations of compounds or control solvent. Following a 72-hour exposure period, cell viability was determined using a Cell Counting Kit-8 assay (Life-iLab, China). Dose-response curves were fitted using a four-parameter method facilitated by SoftMax Pro, which was subsequently used for the computation of IC50 values.

p-Hsp27 = assay: Cellular washout assay, p-Hsp27 by western blot; assay type: cell-based; conditions: 1 h pretreatment, then LPS
Method: FIGURE 4 Targeting cellular MK2 signaling with irreversible inhibition by compound 11. (A and B) RT‐PCR analysis of IL‐1β, TNF‐α, and IL‐6 expression in Lipopolysaccharides (LPS)‐stimulated THP‐1 (A) and RAW264.7 (B) Cells, with pre‐treatment of compound 11 for 3 h followed by LPS (3 h) stimulation. (C) The inhibitory effects of compound 11 on TNF‐α and IL‐6 production in LPS‐stimulated RAW264.7 macrophages for 24 h, measured by ELISA. (D and E) Compound 11, alongside CC‐99677 and PF‐3644022, suppressed MK2 pathway activation, validated through western blot analysis post‐LPS stimulation. Cells were preincubated with the specified compounds for 1 h prior to LPS stimulation (100 ng/mL, 30 min). (F) Distinguishes the mode of action between compound 11 and CC‐99677. The complex structure of a small molecule and MK2 (3R2Y) with the same parent nucleus as compound 11 is shown in cyans, and the complex structure of a small molecule and MK2 (3FYJ) with the same parent nucleus as CC‐99677 is shown in orange. (G–I) The effect of indicated inhibitor on Hsp27 phosphorylation following inhibitor washout. Cells were pretreated with indicated compounds for 1 h and then washed to remove free compound and incubated for a further indicated time before activation with LPS. In (A–C), LPS (100 ng/mL) served as the stimulation control, while untreated cells were the baseline control. The data represent as mean ± SD from triplicates, with statistical analysis conducted via one‐way analysis of variance (ANOVA) (^## p < 0.01, ^### p < 0.001 vs. stimulation control; ^***p < 0.001 vs. baseline control).
Furthermore, to validate the irreversible mechanism of action of compound 11 at the cellular level, we performed a cellular washout assay and assessed p‐Hsp27 levels. The established MK2 irreversible inhibitor CC‐99677 served as positive control, while the reversible ATP‐competitive inhibitor PF‐3644022 was used as negative control. […] In contrast, only 1 h after PF‐3644022 washout, p‐Hsp27 level was totally recovered (Figure 4I).
After the treatment outlined in the figure legends, cells were lysed using 1× sodium dodecyl sulfate (SDS) solution. The lysates were then subjected to SDS‐polyacrylamide gel electrophoresis for separation, followed by transferring onto nitrocellulose membranes. The membranes were incubated with primary antibodies specific to phospho‐MK2, phospho‐Hsp27, MK2, Hsp27, GAPDH, and β‐actin (Cell Signaling Technology), followed by horseradish peroxidase‐conjugated anti‐mouse or anti‐rabbit IgG secondary antibodies. Protein bands were detected using an enhanced chemiluminescence detection reagent (Thermo Fisher Scientific).

[2] = test system: MRC1 and ARG-1 mRNA in bone marrow-derived macrophages (BMDM); assay: RT-PCR of M2 markers in IL-4/IL-13 stimulated BMDM; assay type: cell-based, mouse; conditions: IL-4/IL-13 20 ng/mL
From the text: as §1
FIGURE 5 Inhibition of pro‐tumorigenic M2‐like polarization in macrophages by compound 11. (A–C) RT‐PCR analysis highlights the impact of compound 11 on MRC1 and ARG‐1 mRNA expression in various macrophage cells treated with IL‐4/IL‐13 alone or combined with compound 11 for 12 h or 24 h. […] Data are shown as the mean ± SD. ^* p < 0.05; ^*** p < 0.001 versus the vehicle group, determined by unpaired t test. […]
Total RNA was extracted from cultured cells using the EZ‐press RNA Purification Kit (EZBioscience). Complementary DNA was synthesized using the ABScript III RT Master Mix for qPCR with gDNA remover (ABclonal Technology) and was quantified with primers listed in Table S5. The relative mRNA expression levels were quantified through qPCR using the SYBR green gene expression assay (ABclonal Technology).

[3] = Cell viability assay (CCK-8), Raw264.7; assay type: cell-based; conditions: Raw264.7 cells (mononuclear macrophage), Raw264.7, mouse mononuclear macrophage, read-out: IC50 (μM) mean ± SD, cytotoxicity
Method: as §2, §3

[4] = Cell viability assay (CCK-8), H1437; assay type: cell-based; conditions: H1437 cells (non-small cell lung carcinoma), H1437, human non-small cell lung carcinoma, read-out: IC50 (μM) mean ± SD, cytotoxicity
Method: as §2, §3

C=CC(=O)Nc1cc(-c2cc(-c3cc4c([nH]3)CCNC4=O)ccn2)ccc1OC(F)(F)F [compound 11]
effect on p-Hsp27 (p-Hsp27 in THP-1 cells): significant inhibition | IC50 at 72 h [1]: 47.2 ± 2.4 µM | p-Hsp27 level 3 h after inhibitor washout (p-Hsp27; 3 h): still significantly inhibited | time after inhibitor washout at which p-Hsp27 level recovered (p-Hsp27): 24 h | effect on transcriptional level of MRC1 and ARG-1 [2]: significantly suppressed | IC50 at 72 h [3]: 31.7 ± 2.9 µM | IC50 at 72 h [4]: 33.4 ± 0.6 µM

— article PMC11233931, “Remodeling tumor‐associated macrophage for anti‐cancer effects by rational design of irreversible inhibition of mitogen‐activated protein kinase‐activated protein kinase 2” (MedComm, 2024)
